Data from patent US9730914B2, “3,5-diaminopyrazole kinase inhibitors” (Axikin Pharmaceuticals, Inc., priority 2014, dated 2017).

Columns and labels:
[1] = target: T1, kinase domain protein of RC kinase (RCK) (Homo sapiens, UniProt Q56UN5); experiment: Kinase competition binding assay (Kd, qPCR readout), RC kinase; conditions: Kd class, read-out: RCK Activity Level
T1 construct: made in house; host or cells: E. coli BL21-derived host (T7 phage) or HEK-293
T1 sequence (Q56UN5 1061-1324 limits assumed): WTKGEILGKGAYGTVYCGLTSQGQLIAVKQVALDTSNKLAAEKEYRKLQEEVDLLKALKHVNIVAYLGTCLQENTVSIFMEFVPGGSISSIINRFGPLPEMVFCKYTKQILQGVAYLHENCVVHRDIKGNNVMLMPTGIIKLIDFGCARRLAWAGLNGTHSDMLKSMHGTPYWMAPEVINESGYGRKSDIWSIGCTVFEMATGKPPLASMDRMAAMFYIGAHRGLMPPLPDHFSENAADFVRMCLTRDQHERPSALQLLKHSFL
Outline: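 Competition binding: DNA-tagged kinase (T7 phage or HEK-293-expressed) plus immobilized biotinylated ligand beads and compound, 1 h at room temperature, 1% DMSO. Bead-bound kinase eluted and quantified by qPCR. Kd from 11-point 3-fold dilution, top 30,000 nM, retested lower if below 0.5 nM.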

JAK2 = target: T2, JAK2 (Homo sapiens, UniProt O60674); experiment: Kinase competition binding assay (Kd, qPCR readout), JAK2; conditions: for Kd: Kd class, JAK2, read-out: JAK2 Activity Level; for RCK:JAK2 selectivity ratio: ratio Kd (JAK2): Kd(RCK)
T2 construct: made in house; host or cells: E. coli BL21-derived host (T7 phage) or HEK-293
Outline: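 Competition binding: DNA-tagged kinase (T7 phage or HEK-293-expressed), immobilized biotinylated ligand beads and compound in SeaBlock/PBS/Tween/DTT buffer, 1 hour at room temperature; bound kinase eluted and quantified by qPCR. Kd from 11-point 3-fold dilution, top 30,000 nM typically, final DMSO 1%.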

JAK3 = target: T3, JAK3 (Homo sapiens, UniProt P52333); experiment: Kinase competition binding assay (Kd, qPCR readout), JAK3; conditions: for Kd: read-out: JAK3 Activity Level; for RCK:JAK3 selectivity ratio: ratio Kd (JAK3): Kd (RCK)
T3 construct: made in house; host or cells: E. coli BL21-derived host (T7 phage) or HEK-293
Outline: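 Kd values were derived from 11-point, 3-fold compound series at 1% DMSO, usually topping at 30,000 nM, with retesting from a lower top when under 0.5 nM. It competed with bead-immobilized ligand for 1 h at room temperature, and the captured kinase was measured by qPCR after elution.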

T3 sequence (P52333 811-1124 limits assumed): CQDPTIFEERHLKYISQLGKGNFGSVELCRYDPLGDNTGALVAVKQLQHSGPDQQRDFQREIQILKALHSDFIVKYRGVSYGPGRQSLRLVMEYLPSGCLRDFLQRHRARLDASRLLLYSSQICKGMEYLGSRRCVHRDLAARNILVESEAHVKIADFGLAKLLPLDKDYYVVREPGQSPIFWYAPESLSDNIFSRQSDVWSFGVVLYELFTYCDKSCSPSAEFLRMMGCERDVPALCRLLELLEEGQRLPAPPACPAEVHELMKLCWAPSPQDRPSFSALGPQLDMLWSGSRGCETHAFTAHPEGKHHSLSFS
T2 sequence (O60674 840-1132 limits assumed): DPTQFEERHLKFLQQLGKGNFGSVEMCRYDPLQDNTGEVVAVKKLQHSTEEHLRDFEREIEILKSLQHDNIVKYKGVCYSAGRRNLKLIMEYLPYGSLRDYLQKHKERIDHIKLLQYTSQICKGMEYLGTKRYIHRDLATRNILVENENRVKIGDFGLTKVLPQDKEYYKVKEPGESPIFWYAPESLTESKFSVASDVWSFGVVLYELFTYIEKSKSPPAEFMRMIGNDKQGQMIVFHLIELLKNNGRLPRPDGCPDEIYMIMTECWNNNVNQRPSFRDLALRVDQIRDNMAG

Row | Kd [1] [nM] | Kd (JAK2) [nM] | Kd (JAK3; Kd class, JAK3) [nM] | JAK3 Activity Level (JAK3; Kd class, JAK3) | Structure (SMILES) | RCK:JAK2 selectivity ratio (JAK2) | RCK:JAK3 selectivity ratio (JAK3)
1 | < 50 | 100 to 1000 | > 1000 |  | Cc1cc(CNc2[nH]nc(Nc3ccc(N4CCN(C)CC4)c(Cl)c3)c2C(N)=O)cc(C)c1O [Compound 41, 3-((3-chloro-4-(4-methylpiperazin-1-yl)phenyl)amino)-5-((4-hydroxy-3,5-dimethylbenzyl)amino)-1H-pyrazole-4-carboxamide] | B (B represents 10<Kd(JAK2): Kd (RCK)<100) | A (A represents Kd (JAK3): Kd (RCK)>100)
2 | 100 to 1000 | > 1000 | > 1000 |  | COc1ccc(Nc2n[nH]c(NCc3cc(C)c(O)c(C)c3)c2C(N)=O)cc1 [Compound 20, 5-((4-hydroxy-3,5-dimethylbenzyl)amino)-3-((4-methoxyphenyl)amino)-1H-pyrazole-4-carboxamide] | C (C represents 1<Kd (JAK2): Kd (RCK)<10) | B (B represents 10<Kd (JAK3): Kd (RCK)<100)
3 | 50 to 100 | > 1000 | > 1000 |  | Cc1cc(CNc2[nH]nc(Nc3ccc(N4CCN(C)CC4)cc3)c2C(N)=O)cc(C)c1O [Compound 10, 5-((4-hydroxy-3,5-dimethylbenzyl)amino)-3-((4-(4-methylpiperazin-1-yl)phenyl)amino)-1H-pyrazole-4-carboxamide] | B (B represents 10<Kd(JAK2): Kd (RCK)<100) | A (A represents Kd (JAK3): Kd (RCK)>100)
4 | 50 to 100 | > 1000 | > 1000 |  | Cc1cc(CNc2[nH]nc(Nc3ccc(-c4cccnc4)cc3)c2C(N)=O)cc(C)c1O [Compound 16, 5-((4-hydroxy-3,5-dimethylbenzyl)amino)-3-((4-(pyridin-3-yl)phenyl)amino)-1H-pyrazole-4-carboxamide] | B (B represents 10<Kd(JAK2): Kd (RCK)<100) | B (B represents 10<Kd (JAK3): Kd (RCK)<100)
5 | > 1000 | > 1000 | > 1000 |  | Cc1cc(CNc2[nH]nc(Nc3ccc(C(C)(C)C)cc3)c2C(N)=O)cc(C)c1O [Compound 21, 3-((4-(tert-butyl)phenyl)amino)-5-((4-hydroxy-3,5-dimethylbenzyl)amino)-1H-pyrazole-4-carboxamide] | C (C represents 1<Kd (JAK2): Kd (RCK)<10) | 
6 | 100 to 1000 | > 1000 | > 1000 |  | Cc1cc(CNc2[nH]nc(Nc3ccc(N4CCC(C)CC4)cc3)c2C(N)=O)cc(C)c1O [Compound 63, 5-((4-hydroxy-3,5-dimethylbenzyl)amino)-3-((4-(4-methylpiperidin-1-yl)phenyl)amino)-1H-pyrazole-4-carboxamide] | B (B represents 10<Kd(JAK2): Kd (RCK)<100) | B (B represents 10<Kd (JAK3): Kd (RCK)<100)
7 | 100 to 1000 | > 1000 | > 1000 |  | Cc1cc(CNc2[nH]nc(Nc3ccc(N4CCC(F)CC4)cc3)c2C(N)=O)cc(C)c1O [Compound 25, 3-((4-(4-fluoropiperidin-1-yl)phenyl)amino)-5-((4-hydroxy-3,5-dimethylbenzyl)amino)-1H-pyrazole-4-carboxamide] | C (C represents 1<Kd (JAK2): Kd (RCK)<10) | B (B represents 10<Kd (JAK3): Kd (RCK)<100)
8 | 100 to 1000 | > 1000 | > 1000 |  | Cc1cc(CNc2[nH]nc(Nc3ccc(N4C[C@@H](C)O[C@@H](C)C4)nc3)c2C(N)=O)cc(C)c1O [Compound 26] | B (B represents 10<Kd(JAK2): Kd (RCK)<100) | B (B represents 10<Kd (JAK3): Kd (RCK)<100)
9 | < 50 | 100 to 1000 | > 1000 |  | Cc1cc(CNc2[nH]nc(Nc3ccc(CN4CCOCC4)cc3)c2C(N)=O)cc(C)c1O [Compound 51, 5-((4-hydroxy-3,5-dimethylbenzyl)amino)-3-((4-(morpholinomethyl)phenyl)amino)-1H-pyrazole-4-carboxamide] | B (B represents 10<Kd(JAK2): Kd (RCK)<100) | B (B represents 10<Kd (JAK3): Kd (RCK)<100)

The remaining lines, values behind:

Row | Structure (SMILES) | Kd [1] [nM] | Kd (JAK2) [nM] | Kd (JAK3; Kd class, JAK3) [nM] | JAK3 Activity Level (JAK3; Kd class, JAK3) | RCK:JAK2 selectivity ratio (JAK2) | RCK:JAK3 selectivity ratio (JAK3)
10 | NC(=O)c1c(Nc2ccc(N3CCCCC3)cc2)n[nH]c1NCc1ccc(O)cc1 [reference compound] | < 50 | < 50 | < 50 |  | C (C represents 1<Kd (JAK2): Kd (RCK)<10) | C (C represents 1<Kd (JAK3): Kd (RCK)<10)
11 | NC(=O)c1c(Nc2ccc(N3CCOCC3)cc2)n[nH]c1NCc1ccc(O)cc1 [reference compound] | < 50 | < 50 | < 50 |  | D (D represents Kd(JAK2): Kd (RCK)<1) | C (C represents 1<Kd (JAK3): Kd (RCK)<10)
12 | Cc1cc(Nc2n[nH]c(NCc3ccc(O)cc3)c2C(N)=O)ccc1N1CCN(C)CC1 [reference compound] | < 50 | < 50 | < 50 |  | C (C represents 1<Kd (JAK2): Kd (RCK)<10) | C (C represents 1<Kd (JAK3): Kd (RCK)<10)
13 | NC(=O)c1c(Nc2ccc(N3CCOCC3)c(Cl)c2)n[nH]c1NCc1ccc(O)cc1 [reference compound] | < 50 | < 50 | < 50 |  | D (D represents Kd(JAK2): Kd (RCK)<1) | C (C represents 1<Kd (JAK3): Kd (RCK)<10)
14 | CC(C)N1CCN(c2ccc(Nc3n[nH]c(NCc4ccc(O)cc4)c3C(N)=O)cc2)CC1 [reference compound] | < 50 | < 50 | 50 to 100 |  | C (C represents 1<Kd (JAK2): Kd (RCK)<10) | B (B represents 10<Kd (JAK3): Kd (RCK)<100)
15 | NC(=O)c1c(Nc2ccc(N3CCN(c4ncccn4)CC3)cc2)n[nH]c1NCc1ccc(O)cc1 [reference compound] | < 50 | < 50 | < 50 |  | C (C represents 1<Kd (JAK2): Kd (RCK)<10) | C (C represents 1<Kd (JAK3): Kd (RCK)<10)
16 | Cc1cc(CNc2[nH]nc(Nc3ccc(N4CCN(C(C)C)CC4)c(Cl)c3)c2C(N)=O)cc(C)c1O [Compound 17, 3-((3-chloro-4-(4-isopropylpiperazin-1-yl)phenyl)amino)-5-((4-hydroxy-3,5-dimethylbenzyl)amino)-1H-pyrazole-4-carboxamide] | < 50 | 100 to 1000 | 100 to 1000 |  | A (A represents Kd (JAK2): Kd (RCK)>100) | A (A represents Kd (JAK3): Kd (RCK)>100)
17 | NC(=O)c1c(Nc2ccc(N3CCOCC3)cn2)n[nH]c1NCc1ccc(O)cc1 [reference compound] | < 50 | < 50 |  | .A | D (D represents Kd(JAK2): Kd (RCK)<1) | D (D represents Kd (JAK3): Kd(RCK)<1)
18 | CC(C)(C)c1ccc(Nc2n[nH]c(NCc3ccc(O)cc3)c2C(N)=O)cc1 [reference compound] | < 50 | < 50 | 50 to 100 |  | D (D represents Kd(JAK2): Kd (RCK)<1) | C (C represents 1<Kd (JAK3): Kd (RCK)<10)
19 | Cc1cc(CNc2[nH]nc(Nc3ccc(N4CCN(c5ncccn5)CC4)cc3)c2C(N)=O)cc(C)c1O [Compound 44, 5-((4-hydroxy-3,5-dimethylbenzyl)amino)-3-((4-(4-(pyrimidin-2-yl)piperazin-1-yl)phenyl)amino)-1H-pyrazole-4-carboxamide] | 100 to 1000 | > 1000 | > 1000 |  | B (B represents 10<Kd(JAK2): Kd (RCK)<100) | B (B represents 10<Kd (JAK3): Kd (RCK)<100)
20 | Cc1cc(CNc2[nH]nc(Nc3ccc(N4CCN(C(=O)N5CCOCC5)CC4)cc3)c2C(N)=O)cc(C)c1O [Compound 39, 5-((4-hydroxy-3,5-dimethylbenzyl)amino)-3-((4-(4-(morpholine-4-carbonyl)piperazin-1-yl)phenyl)amino)-1H-pyrazole-4-carboxamide] | 50 to 100 | < 50 | < 50 |  | B (B represents 10<Kd(JAK2): Kd (RCK)<100) | B (B represents 10<Kd (JAK3): Kd (RCK)<100)
21 | NC(=O)c1c(Nc2ccc(NC(=O)c3ccc(F)cc3)cc2)n[nH]c1NCc1ccc(O)cc1 [reference compound] | < 50 | < 50 | < 50 |  | C (C represents 1<Kd (JAK2): Kd (RCK)<10) | C (C represents 1<Kd (JAK3): Kd (RCK)<10)
22 | NC(=O)c1c(Nc2ccc(N)cc2)n[nH]c1NCc1ccc(O)cc1 [reference compound] | 100 to 1000 | 50 to 100 | 100 to 1000 |  | D (D represents Kd(JAK2): Kd (RCK)<1) | D (D represents Kd (JAK3): Kd(RCK)<1)
